Assay results: article PMC6509186, “Nontypeable Haemophilus influenzae Has Evolved Preferential Use of N-Acetylneuraminic Acid as a Host Adaptation” (mBio, 2019)
pKd: −log10 of the molar value. Where two headings read alike, the source gives them in different places.

Molecular target: T1, CMP-Neu5Ac synthetase (SiaB) (Haemophilus influenzae, UniProt Q57140)
T1 construct: gene neuA; full-length siaB in pET51-Ek/LIC, N-terminal 6xHis tag (so in the source) kept; expressed in E. coli, Talon purified; 24,800 Da; amine-coupled to CM5 chip
Assay: surface plasmon resonance, immobilised SiaB
Assay type: binding

[1] = 20 mM MgCl2, 0.2 M MOPS, pH 8.1, 37°C, enzyme amine-coupled to CM5 chip

SMILES	pKd	pKd [1]
Nc1ccn([C@@H]2O[C@H](COP(=O)(O)OP(=O)(O)OP(=O)(O)O)[C@@H](O)[C@H]2O)c(=O)n1 [CTP]	< 3.70	–
CC(=O)N[C@H]1[C@H]([C@H](O)[C@H](O)CO)OC(O)(C(=O)O)C[C@@H]1O (stereo partly drawn) [Neu5Ac]	–	8.92
O=C(CO)N[C@H]1[C@H]([C@H](O)[C@H](O)CO)OC(O)(C(=O)O)C[C@@H]1O (stereo partly drawn) [Neu5Gc]	–	6.00
